# In PMC6934184, “Selective DNA-PKcs inhibition extends the therapeutic index of localized radiotherapy and chemotherapy” (The Journal of Clinical Investigation, 2019):
# Biological target: T1, INSR (Homo sapiens, UniProt P06213)
# T1 construct: purchased Thermo Fisher Scientific (Life Technologies) SelectScreen
# Test: SelectScreen Z'LYTE
# Assay type: biochemical
# Outline: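 NU5455 was profiled across the SelectScreen Broad panel of kinase activity and binding assays. Z'LYTE reactions such as CSF1R ran at apparent Km ATP, while the Adapta CAMK1 assay used ATP listed as 10. Values are given as percent.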
# T1 sequence (P06213 28-1382): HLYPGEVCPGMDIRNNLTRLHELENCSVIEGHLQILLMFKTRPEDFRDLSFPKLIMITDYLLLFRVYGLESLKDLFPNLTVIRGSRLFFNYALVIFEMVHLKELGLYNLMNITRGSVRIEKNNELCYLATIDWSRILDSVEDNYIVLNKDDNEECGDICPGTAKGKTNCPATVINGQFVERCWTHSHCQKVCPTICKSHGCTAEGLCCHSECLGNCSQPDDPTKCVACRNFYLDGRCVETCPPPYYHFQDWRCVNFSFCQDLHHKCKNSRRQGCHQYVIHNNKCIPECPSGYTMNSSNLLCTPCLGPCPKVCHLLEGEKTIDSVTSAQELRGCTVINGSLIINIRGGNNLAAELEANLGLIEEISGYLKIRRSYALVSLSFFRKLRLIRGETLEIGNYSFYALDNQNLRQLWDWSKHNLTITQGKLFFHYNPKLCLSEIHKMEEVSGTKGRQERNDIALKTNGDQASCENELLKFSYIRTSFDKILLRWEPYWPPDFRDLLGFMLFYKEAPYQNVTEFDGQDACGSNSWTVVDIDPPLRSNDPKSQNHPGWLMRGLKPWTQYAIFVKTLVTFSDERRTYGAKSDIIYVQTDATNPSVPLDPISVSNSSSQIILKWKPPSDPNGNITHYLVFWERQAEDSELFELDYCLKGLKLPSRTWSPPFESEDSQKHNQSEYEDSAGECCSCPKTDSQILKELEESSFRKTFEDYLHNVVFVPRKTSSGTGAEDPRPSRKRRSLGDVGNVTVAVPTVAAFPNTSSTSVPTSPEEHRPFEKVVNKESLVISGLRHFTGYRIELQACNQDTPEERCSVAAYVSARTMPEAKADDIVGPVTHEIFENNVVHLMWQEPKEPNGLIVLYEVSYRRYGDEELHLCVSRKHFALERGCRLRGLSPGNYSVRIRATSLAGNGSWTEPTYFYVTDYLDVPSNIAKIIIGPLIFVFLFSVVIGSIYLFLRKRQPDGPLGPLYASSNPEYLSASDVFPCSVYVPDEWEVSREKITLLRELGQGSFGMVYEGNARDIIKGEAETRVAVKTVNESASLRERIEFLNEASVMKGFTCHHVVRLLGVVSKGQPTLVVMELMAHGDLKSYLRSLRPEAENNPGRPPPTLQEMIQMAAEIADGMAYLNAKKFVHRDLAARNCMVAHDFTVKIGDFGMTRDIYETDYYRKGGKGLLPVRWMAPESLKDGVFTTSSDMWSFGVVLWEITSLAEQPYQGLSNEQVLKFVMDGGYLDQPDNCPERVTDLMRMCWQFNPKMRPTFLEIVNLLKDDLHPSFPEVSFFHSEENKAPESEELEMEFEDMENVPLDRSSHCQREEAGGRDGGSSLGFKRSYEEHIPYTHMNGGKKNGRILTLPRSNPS
compound,measurement,value
CN(C(=O)CN1CCOCC1)c1ccc2sc3c(-c4cccc5c(=O)cc(N6CC7CCC(C6)O7)oc45)cccc3c2c1 [NU5455],inhibition at 1 µM,4.1%
